Results from ChEMBL document CHEMBL1156712, “CNS depressant and anticonvulsant activities of some novel 3-[5-substituted 1,3,4-thiadiazole-2-yl]-2-styryl quinazoline-4(3H)-ones” (Eur J Med Chem, 2008).
Activity calls are given as the source filed them. The calls are words filed in the database; no cut-off is given here.

How the values were obtained:
Mus musculus [1] = experiment: Neurotoxicity in mouse assessed as minimal motor impairment at 300 mg/kg, ip after 4 hrs by rotarod test; type: toxicity, organism-based; design: dose 300 mg/kg, route intraperitoneal; details: in vivo
Mus musculus [2] = experiment: Anticonvulsant activity in mouse at 300 mg/kg, ip after 0.5 hrs by MES test; type: functional, organism-based; design: dose 300 mg/kg
Mus musculus [3] = experiment: Anticonvulsant activity in mouse at 300 mg/kg, ip after 4 hrs by MES test; type: functional, organism-based; design: dose 300 mg/kg
Mus musculus [4] = experiment: Anticonvulsant activity in mouse at 300 mg/kg, ip after 0.5 hrs by scPTZ test; type: functional, organism-based; design: dose 300 mg/kg
Rattus norvegicus = experiment: Central nervous system depressant activity in Wistar rat assessed as immobility time at 100 mg/kg, po after 1 hr by forced swim pool test; type: functional
Mus musculus [5] = experiment: Anticonvulsant activity in mouse at 300 mg/kg, ip after 4 hrs by scPTZ test; type: functional, organism-based; design: dose 300 mg/kg
Mus musculus [6] = experiment: Neurotoxicity in mouse assessed as minimal motor impairment at 300 mg/kg, ip after 0.5 hrs by rotarod test; type: toxicity, organism-based; design: dose 300 mg/kg, route intraperitoneal; details: in vivo
Mus musculus [7] = experiment: Anticonvulsant activity in ip dosed mouse after 0.5 hrs by scPTZ test; type: functional
Mus musculus [8] = experiment: Anticonvulsant activity in ip dosed mouse after 4 hrs by MES test; type: functional
Mus musculus [9] = experiment: Neurotoxicity in ip dosed mouse assessed as minimal motor impairment after 4 hrs by rotarod test; type: toxicity, organism-based; details: in vivo
Mus musculus [10] = experiment: Anticonvulsant activity in ip dosed mouse after 0.5 hrs by MES test; type: functional
Mus musculus [11] = experiment: Neurotoxicity in ip dosed mouse assessed as minimal motor impairment after 0.5 hrs by rotarod test; type: toxicity, organism-based; details: in vivo
Mus musculus [12] = experiment: Anticonvulsant activity in ip dosed mouse after 4 hrs by scPTZ test; type: functional
Mus musculus [13] = experiment: Neurotoxicity in ip dosed mouse assessed as loss of righting reflux after 0.5 hrs; type: toxicity, organism-based; details: in vivo
Mus musculus [14] = experiment: Neurotoxicity in ip dosed mouse assessed as minimal motor impairment at 100 mg/kg, ip after 1 hr by rotarod test; type: toxicity, organism-based; design: dose 100 mg/kg, route intraperitoneal; details: in vivo
Mus musculus [15] = experiment: Neurotoxicity in ip dosed mouse assessed as minimal motor impairment at 100 mg/kg, ip after 0.25 hrs by rotarod test; type: toxicity, organism-based; design: dose 100 mg/kg, route intraperitoneal; details: in vivo
Mus musculus [16] = experiment: Toxicity in mouse at 300 mg/kg, ip after 4 hrs; type: organism-based; design: dose 300 mg/kg, route intraperitoneal; details: in vivo

Compound	Activity (Mus musculus [1])	Activity (Mus musculus [2])	Activity (Mus musculus [3])	Activity (Mus musculus [4])	Time (Rattus norvegicus) [s]	Activity (Mus musculus [5])	Activity (Mus musculus [6])	Activity (Mus musculus [7]) [mg/kg]	Active dose (Mus musculus [8]) [mg/kg]	Activity (Mus musculus [9]) [mg/kg]	Activity (Mus musculus [10]) [mg/kg]	Activity (Mus musculus [11]) [mg/kg]	Activity (Mus musculus [12]) [mg/kg]	Activity (Mus musculus [13])	Activity (Mus musculus [14]) [mg/kg]	Activity (Mus musculus [15]) [mg/kg]	Activity (Mus musculus [16])
O=c1c2ccccc2nc(/C=C/c2ccncc2)n1-c1nnc(/C=C/c2ccccc2)s1	Non-toxic	inactive	inactive	inactive	114.42	inactive	Non-toxic	–	–	–	–	–	–	–	–	–	–
O=c1c2ccccc2nc(/C=C/c2cccc(Cl)c2)n1-c1nnc(-c2ccc(Cl)cc2)s1	Non-toxic	inactive	inactive	inactive	163.75	inactive	Non-toxic	–	–	–	–	–	–	–	–	–	–
CCCC(CCC)C(=O)[O-].[Na+] [VALPROATE SODIUM]	Non-toxic	inactive	inactive	–	–	inactive	Non-toxic	300	–	–	–	–	–	–	–	–	–
O=C1NC(=O)C(c2ccccc2)(c2ccccc2)N1 [PHENYTOIN]	–	–	–	inactive	–	inactive	–	–	30	100	30	100	–	–	–	–	–
O=c1c2ccccc2nc(/C=C/c2ccc(Cl)cc2)n1-c1nnc(/C=C/c2ccccc2)s1	Non-toxic	inactive	inactive	inactive	73.83	inactive	Non-toxic	–	–	–	–	–	–	–	–	–	–
Cc1ccc(-c2nnc(-n3c(/C=C/c4ccc(Cl)cc4)nc4ccccc4c3=O)s2)cc1	Non-toxic	inactive	inactive	inactive	150.1	inactive	–	–	–	–	–	300	–	–	–	–	–
O=c1c2ccccc2nc(/C=C/c2ccncc2)n1-c1nnc(-c2ccc(Cl)cc2)s1	Non-toxic	inactive	–	–	99.82	–	–	300	100	–	–	300	300	–	–	–	–
O=c1c2ccccc2nc(/C=C/c2ccc(Cl)cc2)n1-c1nnc(-c2ccc(Cl)cc2)s1	Non-toxic	inactive	inactive	inactive	117.93	inactive	–	–	–	–	–	300	–	–	–	–	–
COc1ccc(-c2nnc(-n3c(/C=C/c4cccc(Cl)c4)nc4ccccc4c3=O)s2)cc1	Non-toxic	inactive	inactive	inactive	163.21	inactive	Non-toxic	–	–	–	–	–	–	–	–	–	–
O=c1c2ccccc2nc(/C=C/c2cccc(Cl)c2)n1-c1nnc(-c2ccccc2)s1	Non-toxic	inactive	inactive	inactive	132.69	inactive	–	–	–	–	–	300	–	Toxic	–	–	–
O=c1c2ccccc2nc(/C=C/c2cccc(Cl)c2)n1-c1nnc(/C=C/c2ccccc2)s1	Non-toxic	inactive	inactive	inactive	187.91	inactive	Non-toxic	–	–	–	–	–	–	–	–	–	–
COc1ccc(-c2nnc(-n3c(/C=C/c4ccncc4)nc4ccccc4c3=O)s2)cc1	Non-toxic	inactive	inactive	inactive	168.42	inactive	Non-toxic	–	–	–	–	–	–	–	–	–	–
Cc1ccc(-c2nnc(-n3c(/C=C/c4cccc(Cl)c4)nc4ccccc4c3=O)s2)cc1	Non-toxic	inactive	inactive	inactive	100.76	inactive	Non-toxic	–	–	–	–	–	–	–	–	–	–
O=c1c2ccccc2nc(/C=C/c2cccc(Cl)c2)n1-c1nnc(-c2cccc(Cl)c2)s1	Non-toxic	inactive	inactive	inactive	175.83	inactive	Non-toxic	–	–	–	–	–	–	–	–	–	–
NC(=O)N1c2ccccc2C=Cc2ccccc21 [CARBAMAZEPINE]	–	–	–	–	–	–	–	100	100	100	30	100	300	–	–	–	–
O=c1c2ccccc2nc(/C=C/c2ccc(Cl)cc2)n1-c1nnc(-c2cccc(Cl)c2)s1	Non-toxic	inactive	inactive	–	127.48	–	–	300	–	–	–	300	300	–	100	100	–
COc1ccc(-c2nnc(-n3c(/C=C/c4ccc(Cl)cc4)nc4ccccc4c3=O)s2)cc1	–	inactive	inactive	inactive	177.08	inactive	–	–	–	300	–	300	–	–	–	–	–
CCC1(C)CC(=O)NC1=O (centres undefined) [ETHOSUXIMIDE]	Non-toxic	inactive	inactive	–	–	inactive	Non-toxic	300	–	–	–	–	–	–	–	–	–
O=c1c2ccccc2nc(/C=C/c2ccncc2)n1-c1nnc(-c2ccccc2)s1	Non-toxic	inactive	inactive	inactive	83.23	inactive	Non-toxic	–	–	–	–	–	–	–	–	–	–
O=c1c2ccccc2nc(/C=C/c2ccncc2)n1-c1nnc(-c2cccc(Cl)c2)s1	–	inactive	inactive	inactive	142.36	inactive	–	–	–	300	–	300	–	–	–	–	–
Cc1ccc(-c2nnc(-n3c(/C=C/c4ccncc4)nc4ccccc4c3=O)s2)cc1	Non-toxic	inactive	inactive	inactive	131.51	inactive	–	–	–	–	–	100	–	–	–	–	–
O=c1c2ccccc2nc(/C=C/c2ccc(Cl)cc2)n1-c1nnc(-c2ccccc2)s1	Non-toxic	–	–	–	103.26	–	Non-toxic	300	300	–	100	–	300	–	–	–	Toxic
